Reference: patent US20100022568A1, “ENDOTHELIN RECEPTOR ANTAGONISTS FOR EARLY STAGE IDIOPATHIC PULMONARY FIBROSIS” (Actelion Pharmaceeuticals Ltd., priority 2006, published 2010)
Entries after “also recorded” stand apart in the source; their conditions may differ. Like-named read-outs stand apart in the source and are kept apart here. Square brackets hold non-standard residues; d marks the D form. Peptide text beside a SMILES is read from it.

Legend:
[1] = tested on: Swiss 3T3 mouse embryonic fibroblasts; assay: cells
Protocol: Experiments were performed on the mouse embryonic fibroblast cell line Swiss 3T3 (Deutsche Sammlung fur Mikroorganismen und Zellen, DSMZ ACC 173). Cells were starved for 24 h in serum-free medium or medium containing 0.5% serum followed by a 24 h incubation with endothelin-1 at a concentration giving approximately 50% or preferably 80% of its maximal efficacy, in presence either of vehicle or of an antagonist at increasing concentrations or an antagonist in combination with Pirfenidone.
Potential cytotoxic effects are excluded by assessing fibroblast proliferation using the MTS reagent (21). Collagen neo-synthesis by fibroblasts is assessed by measuring ^3H-proline incorporation (22).
Using a concentration of ET-1 of 1 nM (EC80), the below mentioned endothelin receptor antagonists were analyzed for antagonistic activity on ET-1-induced collagen neo-synthesis.

rat mesangial cells = details: cited from earlier work
human fibroblasts = details: cited from earlier work
patients with IPF = assay: BUILD-1 clinical study (phase II/III, placebo-controlled) in IPF patients; type: in vivo, human
Source text: BUILD 1 study was a multicentric, randomized, double-blind, placebo-controlled, phase II/III study in IPF patients. […] Treatment failure was defined either as worsening of PFTs or the occurrence of an acute decompensation of IPF. PFT worsening was defined as 2 out of the following 3 criteria • Decrease from baseline ≧10% in Forced vital capacity (FVC) • Decrease from baseline ≧15% in diffusion capacity for carbon monoxide (DLCO). • Decrease from baseline ≧4% in O2 saturation (blood gas) at rest or increase from baseline ≧8 mmHg in alveolar capillary O2 gradient (A-a PO2).
Main inclusion criteria: proven IPF diagnosis <3 years duration, either via a surgical lung biopsy or when not done according to the ATS/ERS consensus criteria (see above). The main inclusion criteria were the presence of FVC ≧50% of predicted value and DLCO ≧30% of predicted value.
The planned treatment period 1 was 12 months. Patients were evaluated at regular interval up to End-of-Period 1 (Month 12 months) and up to the End-of-Study i.e. when the last patient has his/her last visit. The 6MWT and pulmonary function tests were evaluated at each visit.
The analyses were run by a single radiologist who was blinded to the group allocation. Each patient CT was scored for honeycomb as well as ground-glass from the 3 zones of each lung namely upper mid and lower zone. Increment for HC and ground-glass was rounded to the upper 5%.

cell cultures = details: cited from earlier work
[2] = tested on: various animal models of fibrosis; details: cited from earlier work
[3] = tested on: norepinephrine-induced aortic remodeling and fibrosis; details: cited from earlier work
diabetic rat kidney = details: cited from earlier work
[4] = Mus musculus, Swiss-3T3, read-out: IC50 on ET-1-induced collagen neo-synthesis in 3T3 fibroblasts
[5] = patients with surgical lung biopsy, N = 49

## COC(c1ccccc1)(c1ccccc1)[C@H](Oc1nc(C)cc(C)n1)C(=O)O [Ambrisentan]
[1]; [4]
  IC50: 0.079 µM

## COc1ccccc1Oc1c(NS(=O)(=O)c2ccc(C)cn2)nc(-c2ccncc2)nc1OC [Avosentan]
[1]; [4]
  IC50: 0.33 µM

## CC(C)C[C@@H]1NC(=O)[C@@H](C(C)C)NC(=O)[C@@H]2CCCN2C(=O)[C@@H](CC(=O)O)NC(=O)[C@@H](Cc2c[nH]c3ccccc23)NC1=O [BQ-123] (cyclo(L[dW][dD]P[dV]))
Rat mesangial cells
  Fibronectin synthesis induced by ET-1 or angiotensin II: decreased

## COc1ccccc1Oc1c(NS(=O)(=O)c2ccc(C(C)(C)C)cc2)nc(-c2ncccn2)nc1OCCO [Bosentan]
Human fibroblasts; cell cultures
  Ability to contract a collagen matrix: reduced
  Matrix metalloprotease-1 (collagenase) production: increased
Human fibroblasts; human fibroblasts
  Fibroblast proliferation induced by ET-1: attenuated
Patients with IPF; BUILD-1, IPF patients
  Secondary endpoints related to death or disease worsening: showed efficacy
Patients with IPF; all treated (n=71 bosentan), placebo 36.1%
  PFT score: occurrence of death or treatment failure at End-of-Period 1: 22.5%
Patients with IPF; all treated, bosentan target 125 mg b.i.d., 12 months
  Primary endpoint: exercise capacity (6MWT) at End-of-Period 1: did not show an effect; also recorded: did not show improvement
Patients with IPF; [5]
  PFTs scores at end of period 1: Improved (number of patients): 2
  PFTs scores at end of period 1: Worsened (number of patients): 6
Patients with IPF; patients with surgical lung biopsy, N = 49, 95% CL 0.5%, 14.0%, p 0.2424
  PFTs scores at end of period 1: Improved (percent of patients): 4.1%
Patients with IPF; patients with surgical lung biopsy, N = 49, 95% CL 4.6%, 24.8%
  PFTs scores at end of period 1: Worsened (percent of patients): 12.2%
Patients with IPF; post hoc analysis of BUILD 1 HRCT scans
  Prevention of clinical worsening in IPF patients with early disease with low or no honeycomb on HRCT lung scans: mainly effective
[1]; [4]
  IC50: 0.214 µM
[1]; bosentan 1 μM alone, 24 h
  Effect on ET-1-induced collagen synthesis: reverses ET-1 -induced collagen synthesis to baseline
Cell cultures
  Collagen synthesis: decreases
  Collagenase expression: increases
  Extracellular matrix deposition: inhibits
  NF-κB expression: reduces
[2]
  Anti-fibrotic activity in vivo: potent anti-fibrotic agent

## CCCNS(=O)(=O)Nc1ncnc(OCCOc2ncc(Br)cn2)c1-c1ccc(Br)cc1 [Compound 1, propyl-sulfamic acid {5-(4-bromo-phenyl)-6-[2-(5-bromo-pyrimidin-2-yloxy)-ethoxy]-pyrimidine-4-yl}-amide]
[1]; [4]
  IC50: 0.114 µM

## COc1cc(OC)nc(O[C@H](C(=O)O)C(OC)(c2ccccc2)c2ccccc2)n1 [Darusentan]
[3]
  Accumulation of collagen: decreased
[1]; [4]
  IC50: 0.221 µM

## CC[C@H](C)[C@H](NC(=O)[C@H](CC(=O)O)NC(=O)[C@H](CC(C)C)NC(=O)[C@H](Cc1c[nH]cn1)NC(=O)[C@@H]1CSSC[C@H](N)C(=O)N[C@@H](CO)C(=O)N[C@H]2CSSC[C@H](NC(=O)[C@H](CCC(=O)O)NC(=O)[C@H](CCCCN)NC(=O)[C@H](CC(=O)O)NC(=O)[C@H](CCSC)NC(=O)[C@H](CC(C)C)NC(=O)[C@H](CO)NC(=O)[C@H](CO)NC2=O)C(=O)N[C@@H](C(C)C)C(=O)N[C@@H](Cc2ccc(O)cc2)C(=O)N[C@@H](Cc2ccccc2)C(=O)N1)C(=O)N[C@H](C(=O)N[C@@H](Cc1c[nH]c2ccccc12)C(=O)O)[C@@H](C)CC [ET-1, endothelin-1]
[1]; read-out: EC50 (concentration of ET-1 giving 50% of maximal effect) on collagen neo-synthesis, Swiss 3T3 fibroblasts, 24 h incubation
  EC50: 0.00024 µM

## CC(C)C[C@H](NC(=O)N1CCCCCC1)C(=O)N[C@H](Cc1cn(C)c2ccccc12)C(=O)N[C@H](Cc1ccccn1)C(=O)O [FR1 39317]
Diabetic rat kidney
  Expression of collagen, laminin and TGF-β mRNA: attenuated

## Cc1cc2c(cc1CC(=O)c1sccc1S(=O)(=O)Nc1onc(C)c1Cl)OCO2 [Sitaxsentan]
[1]; [4]
  IC50: 0.369 µM

## CC(=O)c1cc(C)cc(C)c1NC(=O)c1sccc1S(=O)(=O)Nc1onc(C)c1C [TBC3711]
[1]; read-out: IC50 on ET-1-induced collagen neo-synthesis in 3T3 fibroblasts, ET-1 1 nM (EC80), n >= 2
  IC50: 0.059 µM

## Cc1ccc(=O)n(-c2ccccc2)c1 [pirfenidone]
[1]; Mus musculus, Swiss-3T3, 24 h, read-out: Inhibitory effect on collagen neo-synthesis
  inhibition at 1000 µM: 55%
